Experimental findings from patent publication US10323000B2, “Indole derivatives and their use in neurodegenerative diseases” (priority 2014, dated 2019) are described below.

Each structure is given as a SMILES string. Where two headings read alike, the source gives them in different places. A value given as a limit tells only on which side of the number the result lay.

The target of assay [1] is human P2X7 receptor (Homo sapiens (Human), UniProt Q99572). In words: Pore permeation assay (YO PRO dye uptake). The assay is classed as cell-based.
Sequence of human P2X7 receptor (Q99572 whole entry): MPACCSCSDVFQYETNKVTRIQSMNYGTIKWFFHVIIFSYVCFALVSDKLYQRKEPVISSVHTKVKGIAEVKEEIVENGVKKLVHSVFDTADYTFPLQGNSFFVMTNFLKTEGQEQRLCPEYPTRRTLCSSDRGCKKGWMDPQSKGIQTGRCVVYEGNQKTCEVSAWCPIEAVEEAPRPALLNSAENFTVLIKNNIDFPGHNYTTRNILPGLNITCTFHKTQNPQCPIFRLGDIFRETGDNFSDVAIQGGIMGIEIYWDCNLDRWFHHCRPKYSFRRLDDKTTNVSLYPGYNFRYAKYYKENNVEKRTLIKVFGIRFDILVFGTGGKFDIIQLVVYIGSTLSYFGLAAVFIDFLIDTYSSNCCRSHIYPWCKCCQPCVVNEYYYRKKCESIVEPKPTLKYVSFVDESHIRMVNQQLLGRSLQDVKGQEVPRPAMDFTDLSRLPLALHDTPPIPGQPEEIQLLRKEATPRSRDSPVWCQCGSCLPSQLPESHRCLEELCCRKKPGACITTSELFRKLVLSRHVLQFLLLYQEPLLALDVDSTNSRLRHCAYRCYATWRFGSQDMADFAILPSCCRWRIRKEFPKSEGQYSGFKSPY
In assay [2] the target is P2X7 (IL-1β release from THP-1 cells) (Homo sapiens (Human), UniProt Q99572). In words: IL-1β release assay. It is filed as cell-based. On the procedure:
IL-1β release assay: The activation of P2X7 by ATP leads to a fast transient activation of cells resulting in influx of Ca^2+ followed by conversion of pro-IL-1β to active IL-1β. The functional activity of P2X7 compounds was measured by the release of mature […] in the culture medium of THP-1 cells, detected by sandwich ELISA. […] THP-1 cells were harvested from the flask in 50 ml by centrifugation for 3 min at 100 g. The cells were resuspended to 2×10^5 cells/ml in medium supplemented with 0.5 μM PMA and incubated. The cells were washed and resuspended to 1.5×10^5 cells/ml in medium complemented with 10 ng/ml LPS, and the cells were primed for 4 h at 37° C., 5% CO2. After addition of 20 μL of prediluted test compounds, blank, standard and control reagents, cells were incubated for a further 20 min at 37° C. and stimulated with 0.8 mM BzATP for 30 minutes. The cells were centrifuged, supernatant was collected and the presence of mature IL-1β was detected using Dual human IL-1b kit following manufacturer's instruction. The tetrahydrobenzodiazepine analogs effectively modulated the activity of P2X7 in the cells as measured by the levels of pro-inflammatory cytokine IL-1β, which is released by the activation of P2X7 receptor.

Setting [3] is: THP-1 cells, LPS primed, 0.8 mM BzATP, mature IL-1β by sandwich ELISA, read-out: hTHP-1/IL-ib IC50.
The mark [4] stands for this setting: HEK293 transfected with human P2X7, BzATP 10 uM, YO PRO dye uptake, read-out: hP2X7 IC50.

Sequence of P2X7 (IL-1β release from THP-1 cells) (Q99572 whole entry): as above

Turning to `COCCn1cc(C(=O)NCC(C)c2ccccc2Cl)c2c(Cl)cccc21` (stereo not shown) [Compound 33, 4-chloro-N-(2-(2-chlorophenyl)propyl)-1-(2-methoxyethyl)-1H-indole-3-carboxamide], the IC50 in assay [1] is 101 to 500 nM; in assay [2] (setting [3]), > 1000 nM.

In the case of `O=C(NCCC1CCCC1)c1cn(C2CCOC2)c2cccc(Cl)c12` (stereo not shown) [Compound 108, 4-Chloro-1-(tetrahydro-furan-3-yl)-1H-indole-3-carboxylic acid (2-cyclopentyl-ethyl)-amide], the figures for the IC50 in assay [1] and in assay [2] were 10 to 100 nM and 101 to 500 nM, respectively.

For the compound `O=C(NC[C@@]1(O)CCCC(F)(F)C1)c1cn(C[C@@H]2CCCO2)c2cccc(Cl)c12` [Compound 129], the IC50 lay within 101 to 500 nM in assay [1] and 500 to 999 nM in assay [2].

Consider `O=C(NCC1CCCC(F)(F)C1)c1cn(CCC(F)F)c2cccc(Cl)c12` (stereo not shown) [Compound 9, 4-Chloro-1-(3,3-difluoro-propyl)-1H-indole-3-carboxylic acid (3,3-difluoro-cyclohexylmethyl)-amide], for which the IC50 in assay [1] (setting [4]) is < 10 nM; in assay [2] it was 101 to 500 nM.

For the compound `O=C(NCC1CCCC(F)(F)C1)c1cn(CC2CCCN2)c2cccc(Cl)c12` (stereo not shown) [Compound 156, 4-chloro-N-((3,3-difluorocyclohexyl)methyl)-1-(pyrrolidin-2-ylmethyl)-1H-indole-3-carboxamide], the values for the IC50 in assay [1] and in assay [2] (setting [3]) were 10 to 100 nM and < 10 nM, respectively.

Turning to `CN(C)C(=O)Cn1cc(C(=O)NCC2(O)CCC(F)(F)CC2)c2c(Cl)cccc21` [Compound 205, 4-Chloro-1-dimethylcarbamoylmethyl-1H-indole-3-carboxylic acid (4,4-difluoro-1-hydroxy-cyclohexylmethyl)-amide], the IC50 is < 10 nM in assay [1] (setting [4]) and 10 to 100 nM in assay [2].

Take `O=C(NCC1C[C@@H]2CC[C@H]1C2)c1cn(C2COC2)c2cccc(Cl)c12` (stereo partly drawn) [Compound 59, 4-Chloro-1-oxetan-3-yl-1H-indole-3-carboxylic acid ((1S,4R)-1-bicyclo[2.2.1]hept-2-ylmethyl)-amide]: the IC50 in assay [1] and in assay [2] was 10 to 100 nM in each case.

For `O=C(NCC1(O)CCC(F)(F)CC1)c1cn(CC2CCCO2)c2cccc(Cl)c12` (stereo not shown) [Compound 142, 4-chloro-N-((4,4-difluoro-1-hydroxycyclohexyl)methyl)-1-((tetrahydrofuran-2-yl)methyl)-1H-indole-3-carboxamide], the IC50 was 10 to 100 nM in assay [1] and 101 to 500 nM in assay [2].

As to `C[C@@H]1CCC[C@](O)(CNC(=O)c2cn(C3COC3)c3cccc(Cl)c23)C1` [Compound 93, 4-chloro-N-(((1R,3R)-1-hydroxy-3-methylcyclohexyl)methyl)-1-(oxetan-3-yl)-1H-indole-3-carboxamide], the IC50 in assay [1] (setting [4]) was < 10 nM; in assay [2], 10 to 100 nM.

Turning to `COCCn1cc(C(=O)NCC2(O)CCCC(F)(F)C2)c2c(Cl)cccc21` (stereo not shown) [Compound 37, 4-chloro-N-((3,3-difluoro-1-hydroxycyclohexyl)methyl)-1-(2-methoxyethyl)-1H-indole-3-carboxamide], the IC50 in assay [1] and in assay [2] was 10 to 100 nM in each case.

Regarding `O=C(NCCCC(F)(F)F)c1cn(C2COC2)c2cccc(Cl)c12` [Compound 73, 4-Chloro-1-oxetan-3-yl-1H-indole-3-carboxylic acid (4,4,4-trifluoro-butyl)-amide], the IC50 in assay [1] is 101 to 500 nM; in assay [2], 500 to 999 nM.

As to `O=C(NCC1(O)CCC(F)(F)CC1)c1cn(CC(F)(F)F)c2cccc(Cl)c12` [Compound 4, 4-chloro-N-((4,4-difluoro-1-hydroxycyclohexyl)methyl)-1-(2,2,2-trifluoroethyl)-1H-indole-3-carboxamide], the values for the IC50 in assay [1] and in assay [2] were 10 to 100 nM and 101 to 500 nM, respectively.

Regarding `O=C(NCC1(O)CCCCC1)c1cn(C2COC2)c2cccc(Cl)c12` [Compound 58, 4-Chloro-1-oxetan-3-yl-1H-indole-3-carboxylic acid (1-hydroxy-cyclohexylmethyl)-amide], the IC50 in assay [1] was 10 to 100 nM; in assay [2] it was 101 to 500 nM.

As for `O=C(NCC1CCCC(F)(F)C1)c1cn(C2COC2)c2cccc(Cl)c12` (racemic) [Compound 69, 4-chloro-N-((3,3-difluorocyclohexyl)methyl)-1-(oxetan-3-yl)-1H-indole-3-carboxamide], the figures for the IC50 in assay [1] and in assay [2] were 10 to 100 nM and 101 to 500 nM, respectively.

With `O=C(NCC1(O)CCC(F)(F)CC1)c1cn(C2COC2)c2cccc(Cl)c12` [Compound 92, 4-chloro-N-((4,4-difluoro-1-hydroxycyclohexyl)methyl)-1-(oxetan-3-yl)-1H-indole-3-carboxamide], the IC50 is 10 to 100 nM in assay [1] and 101 to 500 nM in assay [2].

Take `CC(C)N1CCCC1Cn1cc(C(=O)NCC2CCC(F)(F)CC2)c2c(Cl)cccc21` (stereo not shown) [Compound 196, 4-chloro-N-((4,4-difluorocyclohexyl)methyl)-1-((1-isopropylpyrrolidin-2-yl)methyl)-1H-indole-3-carboxamide]: the IC50 in assay [1] was 10 to 100 nM; in assay [2], 101 to 500 nM.

For `C[C@@H]1CCC[C@](O)(CNC(=O)c2cn(CC3CCCO3)c3cccc(Cl)c23)C1` (stereo partly drawn) [Compound 143, 4-chloro-N-(((1R,3R)-1-hydroxy-3-methylcyclohexyl)methyl)-1-((tetrahydrofuran-2-yl)methyl)-1H-indole-3-carboxamide], the IC50 in assay [1] lay in the range of 10 to 100 nM; in assay [2] it was 101 to 500 nM.

As to `COCCn1cc(C(=O)NCC2(c3ccc(C(F)(F)F)cc3)CCOCC2)c2c(Cl)cccc21` [Compound 38], the IC50 in assay [1] is 10 to 100 nM; in assay [2], 101 to 500 nM.

As for `O=C(NCC1CCC(F)(F)CC1)c1cn(CC(=O)N2CCCCC2)c2cccc(Cl)c12` [Compound 195, 4-Chloro-1-(2-oxo-2-piperidin-1-yl-ethyl)-1H-indole-3-carboxylic acid (4,4-difluoro-cyclohexylmethyl)-amide], the IC50 lay within 10 to 100 nM in assay [1] and 101 to 500 nM in assay [2].

On to `O=C(NCC1CCC(F)(F)CC1)c1cn(CCOC(F)F)c2cccc(Cl)c12` [Compound 95, 4-chloro-N-((4,4-difluorocyclohexyl)methyl)-1-(2-(difluoromethoxy)ethyl)-1H-indole-3-carboxamide], for which the IC50 fell in the range of 10 to 100 nM in assay [1] and 101 to 500 nM in assay [2].

For `O=C(NCC1(O)CCCC(F)(F)C1)c1cn(CCN2CCCC2=O)c2cccc(Cl)c12` (stereo not shown) [Compound 188, 4-chloro-N-((3,3-difluoro-1-hydroxycyclohexyl)methyl)-1-(2-(2-oxopyrrolidin-1-yl)ethyl)-1H-indole-3-carboxamide], the IC50 in assay [1] and in assay [2] was 10 to 100 nM throughout.

For the compound `O=C(NCC1(N2CCN(c3ccccc3)CC2)CCOCC1)c1cn(C2COC2)c2cccc(Cl)c12` [Compound 44, 4-chloro-1-(oxetan-3-yl)-N-((4-(4-phenylpiperazin-1-yl)tetrahydro-2H-pyran-4-yl)methyl)-1H-indole-3-carboxamide], the IC50 in assay [1] was in the range of 10 to 100 nM; in assay [2], 101 to 500 nM.

On to `O=C(NCC1CCC(F)(F)CC1)c1cn(CC(F)(F)F)c2cccc(Cl)c12` [Compound 5, 4-chloro-N-((4,4-difluorocyclohexyl)methyl)-1-(2,2,2-trifluoroethyl)-1H-indole-3-carboxamide], for which the figures for the IC50 in assay [1] and in assay [2] were 10 to 100 nM and 101 to 500 nM, respectively.

`CN1CCOC(Cn2cc(C(=O)NCC3CCC(F)(F)CC3)c3c(Cl)cccc32)C1` (stereo not shown) [Compound 183, 4-chloro-N-((4,4-difluorocyclohexyl)methyl)-1-((4-methylmorpholin-2-yl)methyl)-1H-indole-3-carboxamide]: the IC50 in assay [1] and in assay [2] was 10 to 100 nM each time.

As for `O=C(NCC1(N2CCN(c3ccccc3)CC2)CCCCC1)c1cn(C2COC2)c2cccc(Cl)c12` [Compound 51, 4-chloro-1-(oxetan-3-yl)-N-((1-(4-phenylpiperazin-1-yl)cyclohexyl)methyl)-1H-indole-3-carboxamide], the IC50 in assay [1] was 10 to 100 nM; in assay [2] (setting [3]), < 10 nM.

Take `CC1CC(F)(F)CC(O)(CNC(=O)c2cn(C3COC3)c3cccc(Cl)c23)C1` (stereo not shown) [Compound 89, 4-chloro-N-((3,3-difluoro-1-hydroxy-5-methylcyclohexyl)methyl)-1-(oxetan-3-yl)-1H-indole-3-carboxamide]: the figures for the IC50 in assay [1] and in assay [2] were 101 to 500 nM and 500 to 999 nM, respectively.

As for `O=C(NCC1CCCOC1)c1cn(C2COC2)c2cccc(Cl)c12` (stereo not shown) [Compound 74, 4,4-Chloro-1-oxetan-3-yl-1H-indole-3-carboxylic acid (tetrahydro-pyran-3-ylmethyl)-amide], the IC50 in assay [1] (setting [4]) and in assay [2] (setting [3]) was > 1000 nM throughout.

For `O=C(NCC1CCC(F)(F)CC1)c1cn(C2COC2)c2cccc(Cl)c12` [Compound 94, 4-chloro-N-((4,4-difluorocyclohexyl)methyl)-1-(oxetan-3-yl)-1H-indole-3-carboxamide], the IC50 in assay [1] and in assay [2] was 10 to 100 nM each time.

With `O=C(NCC1CCC(F)(F)CC1)c1cn(CC2CCCN2)c2cccc(Cl)c12` (stereo not shown) [Compound 158, 4-chloro-N-((4,4-difluorocyclohexyl)methyl)-1-(pyrrolidin-2-ylmethyl)-1H-indole-3-carboxamide], the IC50 in assay [1] (setting [4]) and in assay [2] (setting [3]) was < 10 nM throughout.
